For assay [1], the target named is T1, Beta-lactamase (Pseudomonas aeruginosa, UniProt Q79MP6). Put plainly: inhibition of IMP-1 beta-lactamase activity – biochemical, epi-absorbance, selectivity assay for VIM-2 inhibitor project, dose response (AID 1920).
Assay [2] concerns the target T1, Beta-lactamase. Put plainly: […] counterscreen for selective VIM-2 inhibitors: dose response biochemical high throughput screening assay to identify inhibitors of IMP-1 metallo-beta-lactamase.
In assay [3] the target is Beta-lactamase (Salmonella choleraesuis (strain SC-B67), UniProt Q5J463). Put plainly: Epi-absorbance-based counterscreen for selective VIM-2 inhibitors: dose response biochemical high throughput screening assay to identify inhibitors of TEM-1 serine-beta-lactamase. (Counterscreens check selectivity or assay interference.)
Assay [4] in a line: NIH3T3 cell viability loss – ATP luminescence, mouse fibroblasts, counter-screen, dose response (AID 2010).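 Also: cells exposed to compound for about 90 hours before reading.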 The class given is functional, cell-based.
Assay [5] is described as follows: blockers of HIV-1 ZM109 envelope-driven cell-cell fusion – HeLa effector, CEM target cells, luciferase, cherry-pick, dose response (AID 652058).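 Also: luciferase signal from HIV-1 Env mediated cell-cell fusion of effector and target cells.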 In kind it is functional, cell-based.
The next assay relates to INS1. Put plainly: INS-1E survival protection against cytokine death – cell-based, luminescence, retest, dose response (AID 449756).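 Also: cell death triggered by IL-1 beta plus TNF-alpha plus IFN-gamma mixture; protective hits raise ATP signal compared with cytokine alone wells.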 In kind it is functional. The settings on record: Rattus norvegicus, INS1.
Assay [6] in a line: viability loss in CEM21 cells – cell-based, CellTiter-Glo luminescence, cherry-picked, cytotoxicity control for viral fusion inhibitor project, dose response (AID 652042).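 Also: potency for signal decrease meaning cytotoxicity.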 In kind it is functional. In general terms: In ATP-based viability assays light output follows the ATP content of the culture.
Assay [7] is described as follows: microbe, parasite or virus in culture. Particulars: Mycobacterium tuberculosis. In kind it is functional.
A short description of assay [8]: blockers of HIV-1 envelope-mediated cell-cell fusion – cherry-pick, dose response (AID 652057). The class given is functional, cell-based.
Assay [9] is described as follows: Trypanosoma cruzi growth suppression in host cells – NIH3T3 host cells, beta-gal luminescence, confirmation (AID 2044).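 Also: intracellular parasites grown in NIH/3T3 mouse fibroblasts as host cells; luminescent beta-galactosidase reporter signal from transgenic T. cruzi replicating inside host cells; inhibitors lower the luminescence signal.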 The class given is functional, cell-based.
Assay [10] can be described thus: off-target signal loss in HeLa-CEM21 co-culture – HeLa F-luc CTL cells, cherry-picked, counter-screen for HIV-1 Env fusion inhibitor project, dose response (AID 652040).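 Also: potency for signal decrease marking cytotoxic or nonspecific inhibition.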 In kind it is functional, cell-based.
Assay [11] is described as follows: HIV-1 AD8 envelope cell-cell fusion blockers – cherry-pick, dose response (AID 652062).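 Also: luciferase signal from cell-cell fusion driven by HIV-1 clade B AD8 Env; potency is for inhibitors of fusion seen as a drop in luminescence.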 In kind it is functional, cell-based.
For the next assay, the system named is Vero. The assay can be described thus: viability loss in Vero cells – cell-based, plate reader, cherry-pick samples, cytotoxicity control, dose response (AID 687020). The settings on record: Chlorocebus sabaeus. In kind it is functional.
A short description of assay [12]: acridine orange displacement from DNA – biochemical, fluorescence polarization, cherry-pick, artefact control for RAD54 inhibitor project, dose response (AID 651673). In kind it is functional. (Polarisation of emitted light reports the rotation of a fluorescent probe.)
Assay [13] has as its target T2, Small ubiquitin-related modifier 1 (Homo sapiens, UniProt P63165). The assay can be described thus: SUMO1 protein-protein binding blockers, potency – biochemical, FRET, dose response (AID 624383). Particulars: read-out: IC50_Mean. In kind it is functional.
The target of assay [14] is T2, Small ubiquitin-related modifier 1. Put plainly: SUMO1 protein interaction blockers, potency – biochemical, fluorescence polarization, uHTS hits, dose response (AID 624382). In kind it is functional. The settings on record: read-out: IC50_Mean.

Activity calls are given as the source filed them.

T1 sequence (Q79MP6 whole entry): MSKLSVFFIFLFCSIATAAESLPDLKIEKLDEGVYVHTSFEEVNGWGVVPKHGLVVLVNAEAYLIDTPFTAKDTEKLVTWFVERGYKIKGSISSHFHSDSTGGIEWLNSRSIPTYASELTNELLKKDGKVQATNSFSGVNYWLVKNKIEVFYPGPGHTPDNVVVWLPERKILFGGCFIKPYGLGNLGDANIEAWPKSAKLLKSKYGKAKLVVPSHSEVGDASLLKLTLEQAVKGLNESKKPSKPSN
Beta-lactamase (Salmonella choleraesuis (strain SC-B67), UniProt Q5J463), sequence (Q5J463 whole entry): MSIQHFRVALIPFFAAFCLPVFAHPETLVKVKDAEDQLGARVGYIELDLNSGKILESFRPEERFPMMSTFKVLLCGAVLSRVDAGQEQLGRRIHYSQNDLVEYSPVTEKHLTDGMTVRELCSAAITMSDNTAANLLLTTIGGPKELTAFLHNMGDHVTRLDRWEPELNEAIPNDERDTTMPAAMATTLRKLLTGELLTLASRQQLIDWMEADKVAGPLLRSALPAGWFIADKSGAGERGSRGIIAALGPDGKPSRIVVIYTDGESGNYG
T2 sequence (P63165 whole entry): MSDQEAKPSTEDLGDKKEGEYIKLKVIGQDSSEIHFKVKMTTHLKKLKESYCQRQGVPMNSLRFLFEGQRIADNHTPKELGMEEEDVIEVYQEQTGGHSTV

Turning to `S=c1[nH]nc(Cn2c(-c3ccccn3)nc3ccccc32)n1-c1ccc2c(c1)OCCO2`, the IC50 on Beta-lactamase [1], on Beta-lactamase [2] and at Beta-lactamase [3] was > 59.6 µM (inactive) in each case.

As for `S=C(NCc1ccc(Cl)cc1)NC12CC3CC(CC(C3)C1)C2`, the values for the EC50 in assay [4] and in assay [9] were > 60 µM (not active) and 3.41 µM (active), respectively. For the same compound, the AC50 in [5] was 6.05 µM (active); in the assay on INS1 it was 5.6 µM (active); in assay [6] it was 31.8 µM (active); in [8], 4.88 µM (active); in assay [10], 13.1 µM (active); in [11], 8.99 µM (active). Further, the CC50 in assay [7] was 18.8 µM (active).

Consider `Cc1ccc(CNC(=O)C2CCC(=O)N(CCc3ccccn3)C2)s1` (stereo not given), for which the AC50 in the assay on Vero is 35.6 µM (active).

On to `CCn1c(-c2nn(-c3ccccc3)ccc2=O)n[nH]c1=S`, for which the IC50 at Beta-lactamase [1], on Beta-lactamase [2] and on Beta-lactamase [3] was > 59.6 µM (inactive) throughout.

`Cc1nc2oc3c(O)ncnc3c2c2c1COC(C)(C)C2`: the concentration at half-maximal activity (AC50) in [12] was 67.1 µM (active).

Consider `COc1ccccc1-n1c(S)nnc1-c1ccco1`, for which the IC50 at Beta-lactamase [1], on Beta-lactamase [2] and at Beta-lactamase [3] was > 59.6 µM (inactive) throughout.

Consider `CCCCCCC(=O)Nc1nc(C)c(-c2csc(Nc3cc(Cl)ccc3C)n2)s1`, for which the IC50 in assay [13] is 10.1 µM (active); in assay [14], > 66.6 µM (inactive).

As to `O=C(Nc1ccc(C(=O)OC2CCCCC2)cc1)c1ccncc1`, the results for the AC50 in assay [6], in assay [10] and in [11] were 64.2 µM (active), > 70 µM (inactive) and 13.8 µM (active), respectively.

A word on the EC50: it is the concentration needed to bring the measured effect to its halfway point. As a reminder, the AC50 is the midpoint of the concentration-response curve, whichever way the signal moves.

(Values after ChEMBL document CHEMBL1201862, “PubChem BioAssay data set” (2004).)
